According to patent US9815788B2, “Anti-angiogenic compounds” (University College Dublin National University of Ireland, …, priority 2012, dated 2017):

Assays:
retinal blood vessels = experiment: Ocular neovascularisation in mouse oxygen-induced retinopathy model; type: in vivo, C57BL/6J mice; details: 5 μM injected intravitreally on P13, culled P17; compared to P17 control
Protocol: Postnatal day (P) 7 C57BL/6J mice together with their dams were treated in 75% oxygen (hyperoxia) for 5 days causing regression of retinal blood vessels. They were returned to normoxia (relative hypoxia) on P12, causing rapid regrowth of the retinal blood vessels, 5 μM 11B_CC11_HCl, 5 μM 11B_CC16_HCl, 5 μM pazopanib or 2.5 mg/ml avastin was injected intravitreally on P13. The mice were culled on P17, eyes fixed in 4% paraformaldehyde at 4° C. overnight, flat mounted and retinas stained for isolectin (red, stains vasculature).

CysLT1 receptor = biological target: T1, CysLT1 receptor (Homo sapiens, UniProt Q9Y271); experiment: CysLT1 calcium mobilisation assay in CHO cells; type: cell-based; details: 0.1 nM LTD4, CHO cells expressing CysLT1, read-out: inhibition of calcium mobilisation (CysLT1 antagonism)
T1 construct: host or cells: CHO cells
T1 sequence (Q9Y271 1-337): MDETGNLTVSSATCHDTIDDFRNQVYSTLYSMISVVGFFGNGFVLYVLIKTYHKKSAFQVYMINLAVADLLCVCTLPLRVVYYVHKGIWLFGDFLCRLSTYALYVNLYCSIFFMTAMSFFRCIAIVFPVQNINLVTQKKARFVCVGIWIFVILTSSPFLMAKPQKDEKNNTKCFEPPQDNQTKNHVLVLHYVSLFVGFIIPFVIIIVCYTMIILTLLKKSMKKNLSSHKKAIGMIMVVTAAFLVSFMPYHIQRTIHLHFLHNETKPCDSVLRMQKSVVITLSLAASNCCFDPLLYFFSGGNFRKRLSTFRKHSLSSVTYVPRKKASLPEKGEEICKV
Protocol: (§1) FIG. 15 tables the percentage inhibition by compounds 11B_CC11_HCl and 11B_CC16_HCl on the cysteinyl leukotriene pathway in in vitro and ex vivo assays. […] For in vitro cysteinyl leukotriene cell-based assays 11B_CC11_HCl and 11B_CC16_HCl, were tested at 30 μM concentration in duplicate, in a single experiment for their ability to inhibit the calcium mobilisation response of the CysLT1 receptor to 0.1 nM leukotriene D4 in CHO cells over-expressing the CysLT1 receptor or the calcium mobilisation response of the CysLT2 receptor to 30 nM of leukotriene C4 in HEK 293 cells over expressing the CysLT2 receptor.
(§2) Target profiling using Cerep and Eurofins/Panlabs profiling screens was undertaken using 11B_CC11_HCl and 11B_CC16_HCl in order to investigate the mechanism of action. […] Test substance (30 LM)-induced isometrically recorded contraction by 50 percent or more within 5 min, relative to control 3 nM leukotriene D4 response, indicates possible cysteinyl-leukotriene LT1 receptor agonist activity. […] To measure inhibition of cysteinyl leukotriene 1 (CysLT1 [LTD4]) and cysteinyl leukotriene 2 (CysLT2 [LTC4]) receptor activity, calcium mobilisation was measured using Fluor-3-loaded CHO cells (for cysLT1 assays) or HEK-293 cells (for CysLT2 assays) which stably express either the CysLT1 or CysLT2 receptors. […]

CysLT2 receptor = biological target: T2, CysLT2 receptor (Homo sapiens, UniProt Q9NS75); experiment: CysLT2 calcium mobilisation assay in HEK 293 cells; type: cell-based; details: HEK293, 30 nM LTC4, HEK-293 cells expressing CysLT2, read-out: inhibition of calcium mobilisation (CysLT2 antagonism)
T2 construct: host or cells: HEK 293 cells
T2 sequence (Q9NS75 1-346): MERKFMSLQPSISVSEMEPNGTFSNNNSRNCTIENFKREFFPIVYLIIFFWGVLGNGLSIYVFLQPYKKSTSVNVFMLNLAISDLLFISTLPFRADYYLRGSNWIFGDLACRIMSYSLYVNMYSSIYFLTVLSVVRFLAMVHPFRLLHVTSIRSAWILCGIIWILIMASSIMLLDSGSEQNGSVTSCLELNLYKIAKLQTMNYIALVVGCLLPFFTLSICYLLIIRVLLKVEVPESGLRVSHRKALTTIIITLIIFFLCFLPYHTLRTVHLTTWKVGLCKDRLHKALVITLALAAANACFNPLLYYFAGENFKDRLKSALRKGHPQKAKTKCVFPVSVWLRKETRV
Protocol: as §1, §2

inhibition at 30 µM (CysLT1 receptor): 137%
inhibition at 30 µM (CysLT2 receptor): 41%
Structure (SMILES): C/C(=C\c1ccccc1O)c1ccc2ccccc2n1.Cl [Compound 11B_CC11_HCl, (E)-2-(2-Quinolin-2-yl-propenyl)-phenol HCl salt]
inhibition of neovascularisation (avascular region as percentage of whole retina) (retinal blood vessels): inhibit neovascularisation
